Columns and labels:
[1] = biological target: T1, p38 MAPKα isoform (MAPK14) (Homo sapiens, UniProt Q16539); assay: Enzyme inhibition assay (FRET, Z-LYTE), p38 MAPKα via MAPKAP-K2 activation; type: biochemical; conditions: read-out: Enzyme Inhibition IC50 p38α
T1 construct: purchased Invitrogen
Method: (§1) The enzyme inhibitory activities of compounds disclosed herein were determined by fluorescence resonance energy transfer (FRET) using synthetic peptides labelled with both donor and acceptor fluorophores (Z-LYTE, Invitrogen Ltd., Paisley, UK). Recombinant, phosphorylated p38 MAPKγ (MAPK12:Invitrogen) was diluted in HEPES buffer, mixed with the test compound at the desired final concentrations and incubated for 2 hr at RT. The FRET peptide (2 μM) and ATP (100 μM) were added to the enzyme/compound mixture and incubated for 1 hr. Development reagent (protease) was added for 1 hr prior to detection in a fluorescence microplate reader (Varioskan® Flash, ThermoFisher Scientific). The site-specific protease cleaves non-phosphorylated peptide only and eliminates the FRET signal. Phosphorylation levels of each reaction were calculated using the ratio of coumarin emission (donor) over fluorescein emission (acceptor) for which high ratios indicate high phosphorylation and low ratios indicate low phosphorylation levels. The percentage inhibition of each reaction was calculated relative to non-inhibited control and the 50% inhibitory concentration (IC50 value) then calculated from the concentration-response curve.
For the p38 MAPKα isoform (MAPK14: Invitrogen), enzyme activity was evaluated indirectly by determining the level of activation/phosphorylation of the down-stream molecule, MAPKAP-K2. The p38 MAPKα protein was mixed with the test compound for 2 hr at RT. […] Development reagent was then added and the mixture incubated for 1 hr before detection by fluorescence completed the assay protocol.

p38 MAPKγ (MAPK12) = biological target: T2, p38 MAPKγ (MAPK12) (Homo sapiens, UniProt P53778); assay: Enzyme inhibition assay (FRET, Z-LYTE), p38 MAPKγ; type: biochemical; conditions: read-out: Enzyme Inhibition IC50 p38γ
T2 construct: purchased Invitrogen
T2 sequence (P53778 1-367): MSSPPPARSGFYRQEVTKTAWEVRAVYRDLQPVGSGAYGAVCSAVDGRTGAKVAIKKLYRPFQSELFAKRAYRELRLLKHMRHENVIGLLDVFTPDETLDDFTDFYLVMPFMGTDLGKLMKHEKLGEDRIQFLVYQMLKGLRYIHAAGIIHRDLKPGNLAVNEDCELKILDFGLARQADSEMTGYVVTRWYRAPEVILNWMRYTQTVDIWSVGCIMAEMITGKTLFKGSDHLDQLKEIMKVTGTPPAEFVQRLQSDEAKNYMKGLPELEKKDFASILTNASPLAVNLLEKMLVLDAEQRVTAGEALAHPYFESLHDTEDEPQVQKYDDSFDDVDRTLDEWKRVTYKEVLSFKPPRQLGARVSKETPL
Method: as §1

[2] = tested on: TNFα release in THP-1 cells; assay: LPS-induced TNFα release in THP-1 cells; type: cell-based, human; conditions: Homo sapiens
Method: LPS-Induced TNFα Release in THP-1 Cells
THP-1 cells, a human monocytic cell line, were stimulated with 3 μg/mL of LPS (from E. Coli; 0111:B4, Sigma) for 4 hr and the supernatant collected for determination of the TNFα concentration by sandwich ELISA (Duo-set, R&D systems). The inhibition of TNFα production was calculated at each concentration by comparison with vehicle control. The 50% inhibitory concentration (IC50) was determined from the resultant concentration-response curve.

[3] = tested on: TNFα release in d-U937 cells; assay: LPS-induced TNFα release in d-U937 cells; type: cell-based, human; conditions: Homo sapiens, dU937, relative to 10 μg/mL BIRB796, read-out: LPS/TNFα REC50 d-U937
Method: (§2) LPS-Induced TNFα/IL-8 Release in d-U937 Cells
(§3) U937 cells, a human monocytic cell line, were differentiated to macrophage-type cells by incubation with phorbol myristate acetate (PMA; 100 ng/ml) for 48 to 72 hr. Cells were pre-incubated with final concentrations of test compound for 2 hr and were then stimulated with 0.1 μg/mL of LPS (from E. Coli: O111:B4, Sigma) for 4 hr. The supernatant was collected for determination of TNFα and IL-8 concentrations by sandwich ELISA (Duo-set, R&D systems). The inhibition of TNFα production was calculated as a percentage of that achieved by 10 μg/mL of BIRB796 at each concentration of test compound by comparison against vehicle control. The relative 50% effective concentration (REC50) was determined from the resultant concentration-response curve. The inhibition of IL-8 production was calculated at each concentration of test compound by comparison with vehicle control. The 50% inhibitory concentration (IC50) was determined from the resultant concentration-response curve.

[4] = tested on: IL-8 release in d-U937 cells; assay: LPS-induced IL-8 release in d-U937 cells; type: cell-based, human; conditions: Homo sapiens, dU937
Method: as §2, §3

[5] = tested on: ICAM-1 induction in BEAS2B cells; assay: Poly I:C-induced ICAM-1 induction in BEAS2B cells; type: cell-based, human; conditions: Homo sapiens, BEAS-2B, read-out: PolyIC/ICAM1 IC50 BEAS2B
Method: Poly I:C-Induced ICAM-1 Induction in BEAS2B Cells
Poly I:C (1 μg/mL) (Invivogene Ltd., San Diego, Calif.) was transfected into BEAS2B cells (human bronchial epithelial cells, ATCC) with Oligofectamine (Invitrogen, Carlsbad, Calif.). Cells were pre-incubated with final concentrations of test compounds for 2 hr and the level of ICAM1 expression on the cell surface was determined by cell-based ELISA. At a time point 18 hr after poly I:C transfection, cells were fixed with 4% formaldehyde in PBS and then endogenous peroxidase was quenched by the addition of 0.1% sodium azide and 1% hydrogen peroxide. Cells were washed with wash-buffer (0.1% Tween in PBS: PBS-Tween). and after blocking the wells with 5% milk in PBS-Tween for 1 hr, the cells were incubated with anti-human ICAM-1 antibody (Cell Signaling Technology, Danvers, Mass.) in 1% BSA PBS overnight at 4° C. The cells were washed with PBS-Tween and incubated with the secondary antibody (HRP-conjugated anti-rabbit IgG, Dako Ltd., Glostrup, Denmark). The ICAM-1 signal was detected by adding substrate and reading the absorbance at 450 nm against a reference wavelength of 655 nm using a spectrophotometer. The cells were then washed with PBS-Tween and total cell numbers in each well were determined by reading absorbance at 595 nm after Crystal Violet staining and elution by 1% SDS solution. The measured OD 450-655 readings were corrected for cell number by dividing with the OD595 reading in each well. The inhibition of ICAM-1 expression was calculated at each concentration of test compound by comparison with vehicle control. The 50% inhibitory concentration (IC50) was determined from the resultant concentration-response curve.

[6] = tested on: Differentiated U937 cells; assay: Cell viability MTT assay; type: cell-based, human; conditions: negative = apparent increase in viability; for MTT Assay (Viability) 4 h d-U937, percentage loss of cell viability: 4 hr in 5% FCS; for MTT Assay (Viability) 24 h d-U937, percentage loss of cell viability: 24 h in 10% FCS
Method: Differentiated U937 cells were pre-incubated with each test compound under two protocols: the first for 4 hr in 5% FCS and the second in 10% FCS for 24 h. The supernatant was replaced with 200 μL of new media and 10 μL of MTT stock solution (5 mg/mL) was added to each well. After incubation for 1 hr the media were removed, 200 μL of DMSO was added to each well and the plates were shaken lightly for 1 hr prior to reading the absorbance at 550 nm. The percentage loss of cell viability was calculated for each well relative to vehicle (0.5% DMSO) treatment. Consequently an apparent increase in cell viability for drug treatment relative to vehicle is tabulated as a negative percentage.

T1 sequence (Q16539 whole entry, canonical isoform): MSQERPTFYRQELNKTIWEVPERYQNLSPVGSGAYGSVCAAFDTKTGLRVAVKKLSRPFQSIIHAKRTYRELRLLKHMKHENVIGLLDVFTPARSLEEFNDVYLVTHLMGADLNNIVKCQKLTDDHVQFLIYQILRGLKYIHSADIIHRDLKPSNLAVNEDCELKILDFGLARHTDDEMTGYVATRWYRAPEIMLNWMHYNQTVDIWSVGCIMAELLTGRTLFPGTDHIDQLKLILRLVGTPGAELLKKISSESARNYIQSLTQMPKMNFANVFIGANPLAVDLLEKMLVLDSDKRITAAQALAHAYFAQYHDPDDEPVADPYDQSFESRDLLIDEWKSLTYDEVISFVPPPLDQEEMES

For `CCNC(=O)Nc1cc(Oc2ccc(NC(=O)Nc3cc(C(C)(C)C)nn3-c3ccc(OC)cc3)c(Cl)c2Cl)ccn1` [Example 12, 1-(4-(4-(3-(3-tert-Butyl-1-(4-methoxyphenyl)-1H-pyrazol-5-yl)ureido)-2,3-dichlorophenoxy)pyridin-2-yl)-3-ethylurea], the IC50 [1] was 24.7 nM, the IC50 (p38 MAPKγ (MAPK12)) was 57.2 nM and the IC50 [2] was 1.6 nM. The EC50 [3] was 1.7 nM, the IC50 [4] was 0.2 nM and the IC50 [5] was 2.7 nM. The “MTT Assay (Viability) 4 h d-U937, percentage loss of cell viability” value [6] was 5.0% and the “MTT Assay (Viability) 24 h d-U937, percentage loss of cell viability” value [6] was 24.1%.

`COCC(=O)Nc1cc(Oc2ccc(NC(=O)Nc3cc(C(C)(C)C)nn3-c3ccc(C)cc3)c(S(C)(=O)=O)c2)ccn1` [Example 2, N-(4-(4-(3-(3-tert-Butyl-1-p-tolyl-1H-pyrazol-5-yl)ureido)-3-(methylsulfonyl)phenoxy)pyridin-2-yl)-2-methoxyacetamide] gave an IC50 [1] of 37.7 nM, an IC50 (p38 MAPKγ (MAPK12)) of 366 nM and an IC50 [2] of 5.3 nM. For the same molecule, the EC50 [3] was 29.4 nM, the IC50 [4] was 174 nM and the IC50 [5] was 427 nM. The “MTT Assay (Viability) 4 h d-U937, percentage loss of cell viability” value [6] was −3.1% and the “MTT Assay (Viability) 24 h d-U937, percentage loss of cell viability” value [6] was 32.7%.

`CSc1ccc(-n2nc(C(C)(C)C)cc2NC(=O)Nc2ccc(Oc3ccnc(NC(=O)N4CCCC4)c3)c(Cl)c2Cl)cc1` [Example 10, N-(4-(4-(3-(3-tert-Butyl-1-(4-(methylthio)phenyl)-1H-pyrazol-5-yl)ureido)-2,3-dichlorophenoxy)pyridin-2-yl)pyrrolidine-1-carboxamide] gave an IC50 [1] of 36.7 nM, an IC50 (p38 MAPKγ (MAPK12)) of 184 nM and an IC50 [2] of 0.4 nM. It also gave an EC50 [3] of 0.8 nM, an IC50 [4] of 1.2 nM and an IC50 [5] of 1.7 nM. The “MTT Assay (Viability) 4 h d-U937, percentage loss of cell viability” value [6] was −18.7% and the “MTT Assay (Viability) 24 h d-U937, percentage loss of cell viability” value [6] was 17.0%.

With `COc1ccc(-n2nc(C(C)(C)C)cc2NC(=O)Nc2ccc(Oc3cc(NC(=O)NCCN(C)C)ncn3)c(Cl)c2Cl)cc1` [Example 100] the IC50 [1] was 5.3 nM, the IC50 (p38 MAPKγ (MAPK12)) was 59.4 nM and the IC50 [2] was 0.7 nM. For the same molecule, the EC50 [3] was 0.3 nM, the IC50 [4] was 12.9 nM and the IC50 [5] was 2 nM. The “MTT Assay (Viability) 4 h d-U937, percentage loss of cell viability” value [6] was −43.0% and the “MTT Assay (Viability) 24 h d-U937, percentage loss of cell viability” value [6] was 17.2%.

With `COCC(=O)Nc1nccc(Oc2ccc(NC(=O)Nc3cc(C(C)(C)C)nn3-c3ccc(C)cc3)c(Cl)c2Cl)n1` [Example 90, N-(4-(4-(3-(3-tert-butyl-1-p-tolyl-1H-pyrazol-5-yl)ureido)-2,3-dichlorophenoxy)pyrimidin-2-yl)-2-methoxyacetamide] the IC50 [1] was 45.4 nM, the IC50 (p38 MAPKγ (MAPK12)) was 126 nM and the IC50 [2] was 1.3 nM. For the same molecule, the EC50 [3] was 1.3 nM, the IC50 [4] was 2.3 nM and the IC50 [5] was 6.8 nM. For the same molecule, the “MTT Assay (Viability) 4 h d-U937, percentage loss of cell viability” value [6] was −26.8% and the “MTT Assay (Viability) 24 h d-U937, percentage loss of cell viability” value [6] was −0.5%.

With `COCC(=O)Nc1cc(COc2ccc(NC(=O)Nc3cc(C(C)(C)C)nn3-c3ccc(OC)cc3)c(Cl)c2Cl)ccn1` [Example 15, N-(4-((4-(3-(3-tert-Butyl-1-(4-methoxyphenyl)-1H-pyrazol-5-yl)ureido)-2,3-dichlorophenoxy)methyl)pyridin-2-yl)-2-methoxyacetamide] the IC50 [1] was 15.7 nM, the IC50 (p38 MAPKγ (MAPK12)) was 107 nM and the IC50 [2] was 19.9 nM. The EC50 [3] was 83.8 nM, the IC50 [4] was 162 nM and the IC50 [5] was 31.2 nM. The “MTT Assay (Viability) 4 h d-U937, percentage loss of cell viability” value [6] was −12.2% and the “MTT Assay (Viability) 24 h d-U937, percentage loss of cell viability” value [6] was 12.4%.

Molecule `COCC(=O)Nc1cc(Oc2ccc(NC(=O)Nc3cc(C(C)(C)C)nn3-c3cccc(CO)c3)c(Cl)c2Cl)ncn1` [Example 92, N-(6-(4-(3-(3-tert-butyl-1-(3-hydroxymethylphenyl)-1H-pyrazol-5-yl)ureido)-2,3-dichlorophenoxy)pyrimidin-4-yl)-2-methoxyacetamide] has an IC50 [1] of 25.8 nM, an IC50 (p38 MAPKγ (MAPK12)) of 165 nM and an IC50 [2] of 14.2 nM. The EC50 [3] was 0.9 nM, the IC50 [4] was 9.9 nM and the IC50 [5] was 1.9 nM. The “MTT Assay (Viability) 4 h d-U937, percentage loss of cell viability” value [6] was −14.4% and the “MTT Assay (Viability) 24 h d-U937, percentage loss of cell viability” value [6] was 81.0%.

`Cc1ccc(-n2nc(C(C)(C)C)cc2NC(=O)Nc2ccc(OCc3ccnc(NC(=O)N4CCCC4)c3)c(Cl)c2Cl)cc1` [Example 19, N-(4-((4-(3-(3-tert-Butyl-1-(p-tolyl)-1H-pyrazol-5-yl)ureido)-2,3-dichlorophenoxy)methyl)pyridin-2-yl)pyrrolidine-1-carboxamide] was tested, and the IC50 [1] was 18.5 nM, the IC50 (p38 MAPKγ (MAPK12)) was 4370 nM and the IC50 [2] was 12.3 nM. The EC50 [3] was 25.6 nM, the IC50 [4] was 837 nM and the IC50 [5] was 23.7 nM. For the same molecule, the “MTT Assay (Viability) 4 h d-U937, percentage loss of cell viability” value [6] was −13.5% and the “MTT Assay (Viability) 24 h d-U937, percentage loss of cell viability” value [6] was 6.9%.

For `CN(C)CCNC(=O)Nc1cc(Oc2ccc(NC(=O)Nc3cc(C(C)(C)C)nn3-c3ccc(CO)cc3)c(Cl)c2Cl)ncn1` [Example 101, 1-(3-tert-butyl-1-(4-hydroxymethylphenyl)-1H-pyrazol-5-yl)-3-(2,3-dichloro-4-(6-(3-(2-(dimethylamino)ethyl)ureido)pyrimidin-4-yloxy)phenyl)urea], the IC50 [1] was 5.6 nM, the IC50 (p38 MAPKγ (MAPK12)) was 57.7 nM and the IC50 [2] was 10.4 nM. For the same molecule, the EC50 [3] was 1.1 nM, the IC50 [4] was 3.1 nM and the IC50 [5] was 5.2 nM. The “MTT Assay (Viability) 4 h d-U937, percentage loss of cell viability” value [6] was 2.8% and the “MTT Assay (Viability) 24 h d-U937, percentage loss of cell viability” value [6] was 73.9%.

— patent publication US10000471B2, “Pyrazole P38 map kinase inhibitors” (Respivert Limited, priority 2010, dated 2018)
